Entries after “also recorded” stand apart in the source; their conditions may differ. Like-named read-outs stand apart in the source and are kept apart here.
Legend:
mPAO [1] = target: T1, mPAO (Mus musculus, UniProt Q8C0L6); assay: Steady-state kinetic spectrophotometric assay of mPAO (H2O2 formation); format: biochemical, murine; conditions: for kcat′ / KS′: apparent value; for kcat′: air-saturated 50 mM KH2PO4/KOH buffer pH 7.6, [O2] 237 μM; for KS′: air-saturated buffer pH 7.6, [O2] 237 μM; for substrate for mPAO (oxidation by mPAO) / inhibitor of mPAO (oxidation of N^1-acetyl-Spm): in words; for kcat′/KS′: specificity constant, air-saturated buffer pH 7.6
T1 construct: the full length cDNA of mpao was released by Nde I and Hind III treatment, and ligated into Nde I and Hind III sites of pET29c; made in house; host or cells: E. coli BL21 GOLD (DE3), plasmid pET-MPAO (pET29c)
Procedure: In this example the methods used to examine mPAO steady state kinetics are described. Spectrophotometric assays were done at 30° C. in a potassium phosphate buffer (e.g., 50 mM KH2PO4/KOH buffer, pH 7.6 saturated in air or in pure oxygen), using a published procedure which provides a continuous monitor of the H2O2 produced (Holt et al., Anal. Biochem. 244:384-392 [1997]). These assays were done in 1 mL cuvette with 0.8 mL of solution containing varying amounts of substrate, 1 mM vanillic acid, 0.5 mM 4-aminopyrine, 4 units of horseradish peroxidase, and 0.1-0.2 μg of mPAO. The reactions were monitored at 498 nm with a UVIKON 840 spectrophotometer (KONTRON Instruments) for the formation of the quinoneimine dye (ε498=4,650 M^−1cm^−1 at pH 7.6), the condensation product of vanillic acid and oxidized 4-aminopyrine. The latter is produced from 4-aminopyrine by the action of horseradish peroxidase that has been oxidized by H2O2 (Holt et al., supra [1997]). The assays were done at 25° C. by varying the concentration of the amine substrate, while the oxygen concentration in the assay solution was constant at the air-saturating level of 237 μM. The data were fit, by nonlinear regression to steady-state kinetic equations (McIntire et al., Biochem. J. 228:325-335 [1985]), which provided the values, and standard deviations thereof, for kcat′, KS′ and kcat′/KS′ (=Q, the specificity constant). [formula]
The dissociation constants, KD, for these and other amines were estimated in the following manner. It was assumed that the competition was competitive, since in the presence of the inhibitors, at a saturating N^1-acetyl-Spm concentration, the rate of the reaction was equal to the value of the true kcat. It was also assumed that the mechanism is of the ping-pong type. Thus, the applicable steady-state equation is (Segal, Enzyme Kinetics, John Wiley & Sons, New York, pp. 606-625 [1975]): [formula]
On the left, kcat and KS are the steady-state parameters for N^1-acetyl-Spm (S), and I and KI (=KD), represent the inhibitor and its inhibition constant, respectively. KIO and KO are the inhibition constant and Michaelis constant for O2, respectively. The equation can be converted to the expression on the right side when: [formula]
The expressions for kcat′ and KS′ (at the fixed [O2]=[…]) are the same as those when the inhibitor is absent. Since the values of kcat′ and KS″ were predetermined, inhibition assays were carried out where [S]≈KS″, which, in the absence of I, would give a rate, ν≈0.5×kcat″. In these assay, for each inhibitor, [I] was adjusted so the apparent rate was somewhat less then 0.5 kcat′. In this situation, after substitution and rearrangement, Equation 1 reduces to: [formula]
Since [I] and kcat′ are known, and ν is the measured rate in the presence of the inhibitor, the value of KI′ can be estimated. It is assumed that these apparent KI′ are good approximations of the true KI (=KD) values. […] The estimated KI′ values provided in Table 1, are the averages of these four values. If the reactions of the polyamine substrates and O2 with mPAO obeys a ping-pong type mechanism, the apparent values, kcat′/KS′, are equal to the true kcat/KS values.

mPAO [2] = target: T1, mPAO; assay: Oxygraph assay of O2 consumption, progress-curve analysis; format: biochemical, murine; conditions: progress curves before and after catalase addition
Procedure: Some assays (oxygraph assays) were carried out by directly monitoring O2 consumption in air-saturated buffer ([O2]=0.237 mM) or buffer saturated with pure O2 at 30° C. ([O2]=1.12 mM). The depletion of O2 was detected with a Yellow Springs Instruments, Inc. Model 53 Oxygen Monitor equipped with a Clark electrode. […] Following a published procedure (Goudar et al., Biochim. Biophys. Acta 1429:377-383 [1999]), the data were fitted to the integrated Mechaelis-Menton equation. The analyses were done using Maple VI (Windows 2000) software (Waterloo Maple, Inc.) running on a PC computer. […] Inhibition by the H2O2, formed as a product of polyamine oxidation by mPAO, was assessed by addition of 2 μL of a 30 mg/mL (30,000 units/mg) solution of catalase, after [O2] reached zero.
The catalase immediately converted each mole of H2O2 to 0.5 mol of O2 (since [O2]=1.12 mM for pure O2-saturated buffer, then [O2]=0.56 mM immediately after catalase addition). In the presence of catalase, O2 depletion should occur at 0.5× the rate as it does in the absence of catalase (unless H2O2 inhibition is operating). With catalase present, each molecule of O2 will be converted eventually to H2O (4-electron equivalents), rather than to H2O2 (2-electron equivalents).

[3] = apparent, inhibition of N^1-acetyl-Spm oxidation, average of four inhibitor concentrations, read-out: KI′ = KD

T1 sequence (Q8C0L6 whole entry E184K/L285S/R416L/R417S/Q419R/E451A/V490I/S491G/V497A): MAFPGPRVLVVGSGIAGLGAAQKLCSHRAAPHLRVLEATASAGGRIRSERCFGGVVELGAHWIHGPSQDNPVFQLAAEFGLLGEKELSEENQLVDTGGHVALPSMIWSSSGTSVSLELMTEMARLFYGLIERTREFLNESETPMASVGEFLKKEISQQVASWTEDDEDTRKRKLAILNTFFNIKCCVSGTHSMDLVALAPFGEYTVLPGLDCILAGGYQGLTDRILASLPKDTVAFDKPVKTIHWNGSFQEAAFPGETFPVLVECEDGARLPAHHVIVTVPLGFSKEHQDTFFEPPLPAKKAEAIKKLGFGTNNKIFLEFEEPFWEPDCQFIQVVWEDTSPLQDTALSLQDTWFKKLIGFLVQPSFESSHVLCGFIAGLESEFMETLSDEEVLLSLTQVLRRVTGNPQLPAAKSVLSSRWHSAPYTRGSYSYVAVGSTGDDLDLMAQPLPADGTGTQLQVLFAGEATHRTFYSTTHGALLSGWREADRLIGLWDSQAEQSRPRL

| Compound | kcat′ (mPAO [1]) | KS′ (mPAO [1]) | substrate for mPAO (oxidation by mPAO) (mPAO [1]) | kcat′/KS′ (mPAO [1]) | Ki (mPAO [1]; [3]) | KI′ = KD (mPAO [1]; apparent, inhibition of N^1-acetyl-Spm oxidation, average of four inhibitor concentrations) | inhibitor of mPAO (oxidation of N^1-acetyl-Spm) (mPAO [1]) | substrate for mPAO (oxidation by mPAO) (mPAO [1]; listed as N-(3-Aminopropyl)-1,10-diaminodecane) | substrate for mPAO (oxidation by mPAO) (mPAO [1]; listed as N-(3-aminopropyl)-1,10-diaminodecane) | inhibition of mPAO by product H2O2 (mPAO [2]) | Ki (mPAO [1]) |
| --- | --- | --- | --- | --- | --- | --- | --- | --- | --- | --- | --- |
| CCNCCCNCCCCNCCCNCC [N^1,N^12-diethyl-Spm, N^1,N^12-bis[ethyl]spermine] | 0.415 ± 0.012 s⁻¹ | 150 ± 10 µM | very good substrates | (2.77 ± 0.13) × 10^3 M^−1sec^−1 |  |  |  |  |  |  |  |
| CC(=O)NCCCCNCCCN [N^8-acetyl-Spd] | 0 s⁻¹ | 0 µM | not oxidized by mPAO | 0 M⁻¹ s⁻¹ | 70 µM |  |  |  |  |  |  |
| NCc1ccccc1 [benzylamine] | 0 s⁻¹ | 0 µM |  | 0 M⁻¹ s⁻¹ |  | ∞ (infinity) | not |  |  |  |  |
| NCCCCNCCCN [Spd, spermidine] | 0 s⁻¹ | 0 µM | poor substrates for mPAO | 0 M⁻¹ s⁻¹ | 190 µM |  | inhibitors |  |  |  |  |
| NCCCCN [Put, putrescine] | 0 s⁻¹ | 0 µM |  | 0 M⁻¹ s⁻¹ | 1000 µM |  | inhibitors |  |  |  |  |
| CCNCCCNCCCNCCCNCC [N^1,N^11-diethyl-nor-Spm, N^1,N^11-bis[ethyl]norspermine] | 1.93 ± 0.03 s⁻¹ | 157 ± 7 µM | very good substrates | (1.27 ± 0.03) × 10^4 M^−1sec^−1 |  |  |  |  |  |  |  |
| NCCCCCCCCCCNCCCN [N-(3-aminopropyl) 1,10 decanediamine, N-(3-Aminopropyl)-1,10-diaminodecane] | 0 s⁻¹ |  |  | 0 M⁻¹ s⁻¹ | 35 µM |  | good inhibitor of mPAO | not oxidized by mPAO | not to be a PAO substrate |  |  |
| OO [H2O2, hydrogen peroxide] |  |  |  |  |  |  |  |  |  | inhibition does not occur |  |
| NCCCNCCCCNCCCN [Spm, spermine] |  | 716 ± 33 µM | poor mPAO substrate; also recorded: poor substrates for mPAO |  | 750 µM |  | inhibitors |  |  |  |  |
| N=C(N)NCCCCCCCCCCNC(=N)N [synthalin, 1,10-bisguanidinodecane] | 0 s⁻¹ | 0 µM |  | 0 M⁻¹ s⁻¹ |  |  | extremely potent inhibitor of mPAO |  |  |  | 0.05 µM |
